Our source for the MIC values is DBAASP.

Some test systems named below: Burkholderia cepacia; Klebsiella pneumoniae; Escherichia coli HB101; Escherichia coli; Escherichia coli ML-35; Escherichia coli J2210; Escherichia coli JW0013; Escherichia coli BW25113; Acinetobacter baumannii; Pseudomonas aeruginosa; Escherichia coli JJ2489; Escherichia coli MC1041; Proteus vulgaris; Bacillus megaterium Bm11; Escherichia coli D21.
Common to all, as to experiment: ≥ marks a high value that may be exact or a test limit, other limits are often not marked, values filed in µg/mL are converted to µM
The test system of test [1] is Pseudomonas aeruginosa ATCC 27853.
Test [2] deals with Acinetobacter baumannii ATCC 19606.
The test system of test [3] is Escherichia coli ATCC 25922.
Test [4] deals with Serratia marcescens ATCC 8100.
For test [5], the system named is Klebsiella pneumoniae ATCC 700603.
Test [6] concerns Salmonella enterica subsp. enterica serovar Typhimurium ATCC 14028.
Test [7] has as its system Bacillus subtilis DSM 4181.
Test [8] concerns Staphylococcus epidermidis ATCC 12228.
In test [9] the test system is Salmonella enterica serovar Typhimurium.
The subject of test [10] is Salmonella typhimurium SL1344.
In test [11] the test system is Stenotrophomonas maltophilia ATCC 13637.
The subject of test [12] is Escherichia coli JW0368 ΔsbmA.
The subject of test [13] is Escherichia coli JW2778 ΔygdD.
For test [14], the system named is Enterococcus faecalis ATCC 29212.
The subject of test [15] is Staphylococcus aureus ATCC 25923.
Test [16] deals with Salmonella enterica subsp. enterica serovar Enteritidis MH91989.
The subject of test [17] is Bacillus subtilis KCTC 1918.
Test [18] relates to Bacillus megaterium KCTC 1096.
For test [19], the system named is Pseudomonas aeruginosa KCTC 1637.
The subject of test [20] is Staphylococcus aureus KCTC 1621.
Test [21] deals with Escherichia coli KCTC 1682.
The subject of test [22] is Candida albicans ATCC 18804.
Test [23] relates to Micrococcus luteus ATCC 9341.
Test [24] relates to Salmonella enterica subsp. enterica serovar Typhimurium LT2.
Test [25] deals with Bacillus subtilis ATCC 6051.
Test [26] has as its system Acinetobacter calcoaceticus Ac11.

Molecules are shown by their SMILES. Converted amounts (≈) assume the structure as drawn.

As usually defined, the MIC is the smallest concentration in the dilution series that meets the test's criterion for growth inhibition. Regarding `CC[C@H](C)[C@H](NC(=O)[C@H](CCCN=C(N)N)NC(=O)[C@@H](N)CCCN=C(N)N)C(=O)N[C@@H](CCCN=C(N)N)C(=O)N1CCC[C@H]1C(=O)N[C@@H](CCCN=C(N)N)C(=O)N1CCC[C@H]1C(=O)N1CCC[C@H]1C(=O)N[C@@H](CCCN=C(N)N)C(=O)N[C@@H](CC(C)C)C(=O)N1CCC[C@H]1C(=O)N[C@@H](CCCN=C(N)N)C(=O)N1CCC[C@H]1C(=O)N[C@@H](CCCN=C(N)N)C(=O)N1CCC[C@H]1C(=O)N[C@@H](CCCN=C(N)N)C(=O)O` [RRIRPRPPRLPRPRPR], the MIC in test [1] was greater than 64 µM; in test [2], 32 µM (≈ 66.4 µg/mL); in the test with Burkholderia cepacia it was no less than 128 µM; in test [3], 1 µM (≈ 2.08 µg/mL); in the test on Klebsiella pneumoniae it was 4 µM (≈ 8.31 µg/mL); against Escherichia coli HB101 it was 0.5 µM (≈ 1.04 µg/mL). The MIC in the test with Escherichia coli is 8 µM (≈ 16.6 µg/mL); in test [4] it was 8 µM (≈ 16.6 µg/mL); with Escherichia coli ML-35 it was 2 µM (≈ 4.15 µg/mL); in test [5] it was 4 µM (≈ 8.31 µg/mL); in the test on Escherichia coli J2210 it was 0.12 µM (≈ 0.249 µg/mL); in test [6] it was 1 µM (≈ 2.08 µg/mL). The MIC was 1 µM (≈ 2.08 µg/mL) in [7]; 0.06 µM (≈ 0.125 µg/mL) against Escherichia coli JW0013; greater than 64 µM in test [8]; 1 µM (≈ 2.08 µg/mL) in test [9]; 0.06 µM (≈ 0.125 µg/mL) in test [10]; no less than 64 µM in [11]. Moreover, the minimum inhibitory concentration (MIC) in test [12] is 0.06 µM (≈ 0.125 µg/mL); in test [13] it was 0.083 µM (≈ 0.172 µg/mL); against Escherichia coli BW25113 it was 0.06 µM (≈ 0.125 µg/mL); in test [14], greater than 64 µM; with Acinetobacter baumannii it was 5.66 µM (≈ 11.7 µg/mL); in the test with Pseudomonas aeruginosa, 90.5 µM (≈ 188 µg/mL). In addition, the MIC in [15] is greater than 128 µM; in the test on Escherichia coli JJ2489, 0.12 µM (≈ 0.249 µg/mL); in test [16] it was 0.12 µM (≈ 0.249 µg/mL); in the test with Escherichia coli MC1041, 0.06 µM (≈ 0.125 µg/mL).

On to `CC[C@H](C)[C@H](NC(=O)[C@H](CCCCN)NC(=O)[C@H](CCCCN)NC(=O)[C@H](Cc1ccccc1)NC(=O)[C@H](CC(C)C)NC(=O)[C@H](CCCCN)NC(=O)[C@H](Cc1c[nH]c2ccccc12)NC(=O)[C@@H](N)CCCCN)C(=O)N1CCC[C@H]1C(=O)N[C@@H](Cc1cnc[nH]1)C(=O)N[C@@H](CC(C)C)C(=O)N[C@@H](C)C(=O)N[C@@H](CCCCN)C(=O)N[C@@H](CCCCN)C(=O)N[C@@H](Cc1ccccc1)C(N)=O` [KWKLFKKIPHLAKKF], for which the MIC is 0.78 µM (≈ 1.49 µg/mL) in test [17]; 3.12 µM (≈ 5.97 µg/mL) in [18]; 1.56 µM (≈ 2.98 µg/mL) in the test on Proteus vulgaris; 12.5 µM (≈ 23.9 µg/mL) in test [19]; 6.25 µM (≈ 11.9 µg/mL) in [20]; 12.5 µM (≈ 23.9 µg/mL) in test [21].

On to `CC[C@H](C)[C@H](NC(=O)[C@H](C)NC(=O)[C@H](CCC(=O)O)NC(=O)[C@H](CO)NC(=O)[C@H](Cc1ccccc1)NC(=O)[C@H](CCCCN)NC(=O)[C@H](Cc1ccccc1)NC(=O)[C@H](CO)NC(=O)[C@H](CCC(=O)O)NC(=O)[C@H](C)NC(=O)[C@@H](NC(=O)[C@H](CCCCN)NC(=O)[C@H](CCCCN)NC(=O)[C@@H](NC(=O)[C@@H](NC(=O)[C@H](CC(=O)O)NC(=O)[C@H](Cc1ccccc1)NC(=O)[C@H](CC(C)C)NC(=O)CN)[C@@H](C)CC)[C@@H](C)CC)[C@@H](C)CC)C(=O)N[C@@H](CCCCN)C(=O)N[C@@H](CCCCN)C(=O)N[C@H](C(=O)N[C@H](C(=O)N[C@@H](CC(=O)O)C(=O)N[C@@H](Cc1ccccc1)C(=O)N[C@@H](CC(C)C)C(=O)NCC(=O)O)[C@@H](C)CC)[C@@H](C)CC` [GLFDIIKKIAESFKFSEAIKKIIDFLG], for which the figures for the MIC in test [3], in [22] and in [15] were 128 µM (≈ 393 µg/mL), no less than 128 µM and greater than 128 µM, respectively.

Turning to `CC[C@H](C)[C@H](NC(=O)[C@H](CCCCN)NC(=O)[C@@H]1CCCN1C(=O)[C@@H](NC(=O)[C@H](CC(C)C)NC(=O)[C@H](C)NC(=O)[C@H](Cc1ccccc1)NC(=O)[C@H](Cc1ccccc1)NC(=O)CN)[C@@H](C)CC)C(=O)N[C@H](C(=O)N[C@@H](CO)C(=O)O)[C@@H](C)CC` [GFFALIPKIIS], the MIC in test [1] was greater than 100 µM; in [23] it was no less than 100 µM; in test [24], no less than 100 µM; with Bacillus megaterium Bm11 it was no less than 100 µM; in test [25], no less than 100 µM; in [26] it was no less than 100 µM. This compound displayed an MIC in the test on Escherichia coli D21 of no less than 100 µM.
